Assay results taken from patent US5770617A, “Terbenzimidazoles useful as antifungal agents” (Rutgers, The State University of New Jersey, priority 1997, dated 1998).

Tests used:
[1] = target: T1, mammalian DNA topoisomerase I (Homo sapiens, UniProt P11387); settings: cited from earlier work
T1 sequence (P11387 1-765): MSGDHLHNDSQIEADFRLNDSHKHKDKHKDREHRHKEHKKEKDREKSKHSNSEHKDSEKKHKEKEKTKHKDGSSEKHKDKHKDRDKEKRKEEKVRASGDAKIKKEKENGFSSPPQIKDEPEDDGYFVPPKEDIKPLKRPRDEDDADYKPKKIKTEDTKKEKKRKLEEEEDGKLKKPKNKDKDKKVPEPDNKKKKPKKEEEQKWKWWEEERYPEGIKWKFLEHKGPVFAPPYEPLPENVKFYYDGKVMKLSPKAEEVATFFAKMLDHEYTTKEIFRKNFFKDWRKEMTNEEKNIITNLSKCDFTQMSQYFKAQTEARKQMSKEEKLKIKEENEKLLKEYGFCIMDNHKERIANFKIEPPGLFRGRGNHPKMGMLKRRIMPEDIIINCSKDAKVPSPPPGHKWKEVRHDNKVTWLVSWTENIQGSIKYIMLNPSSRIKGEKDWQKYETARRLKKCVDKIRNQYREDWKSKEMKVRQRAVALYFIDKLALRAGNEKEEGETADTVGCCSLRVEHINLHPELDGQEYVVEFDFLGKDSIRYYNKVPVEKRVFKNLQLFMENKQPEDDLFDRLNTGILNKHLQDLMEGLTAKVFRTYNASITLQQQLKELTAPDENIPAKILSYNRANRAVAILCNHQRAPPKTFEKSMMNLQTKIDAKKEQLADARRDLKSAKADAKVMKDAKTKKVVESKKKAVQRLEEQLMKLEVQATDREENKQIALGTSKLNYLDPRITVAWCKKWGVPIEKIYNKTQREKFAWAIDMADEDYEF

[2] = test system: yeast cells expressing yeast topoisomerase I; assay: Yeast cytotoxicity assay, yeast topoisomerase I; type: cell-based, S. cerevisiae
From the text: (§1) The topoisomerase I-specific in vivo cytotoxicity assay was adapted from A. M. Knab et al., J. Biol. Chem., 268, 22322 (1993). In this system, various topoisomerase I genes or cDNAs cloned into the single-copy yeast plasmid vector (YCpGAL1; Knab et al., cited above) are expressed under the control of the GAL1 promoter in the JN2-134 strain of S. cerevisiae (MAT, rad52::Leu2, trp1, ade2-1, his7, ura3-52, ise1, top1-1, and leu2; M. A. Bjornsti et al., Cancer Res., 49, 6318 (1989)). The topoisomerase I gene or cDNA constructs in the vector are, respectively, the wild-type yeast topoisomerase I gene (YCpGAL-ScTOP1; need cite (1989)), a nonfunctional topoisomerase I gene where the active site tyrosine-727 is mutated to phenylalanine (YCPGAL1-Sctop1Y727; A. M. Knab et al., J. Biol. Chem., 268, 22322 (1993)), and the wild-type human topoisomerase I cDNA (YCp-GAL-hTOP1; M. A. Bjornsti et al., Cancer Res., 49, 6318 (1989)).
(§2) To qualitatively test the cytotoxicity and the topoisomerase I specificity of the drugs, yeast cells containing the specified plasmid were grown in dropout medium supplemented with uracil, 2% galactose, and the drug being tested.

[3] = test system: yeast cells expressing human topoisomerase I; assay: Yeast cytotoxicity assay, human topoisomerase I; type: cell-based, S. cerevisiae
From the text: as §1, §2

[4] = test system: yeast cells expressing nonfunctional yeast topoisomerase I; assay: Yeast cytotoxicity assay, nonfunctional yeast topoisomerase I; type: cell-based, S. cerevisiae
From the text: as §1, §2

[5] = target: T2, Aspergillus topoisomerase I (Aspergillus nidulans, UniProt Q5BGS7); assay: Topoisomerase I cleavage assay, Aspergillus enzyme; type: biochemical; settings: DNA cleavage assay
T2 construct: about 105 kDa by phosphate transfer
T2 sequence (Q5BGS7 1-871): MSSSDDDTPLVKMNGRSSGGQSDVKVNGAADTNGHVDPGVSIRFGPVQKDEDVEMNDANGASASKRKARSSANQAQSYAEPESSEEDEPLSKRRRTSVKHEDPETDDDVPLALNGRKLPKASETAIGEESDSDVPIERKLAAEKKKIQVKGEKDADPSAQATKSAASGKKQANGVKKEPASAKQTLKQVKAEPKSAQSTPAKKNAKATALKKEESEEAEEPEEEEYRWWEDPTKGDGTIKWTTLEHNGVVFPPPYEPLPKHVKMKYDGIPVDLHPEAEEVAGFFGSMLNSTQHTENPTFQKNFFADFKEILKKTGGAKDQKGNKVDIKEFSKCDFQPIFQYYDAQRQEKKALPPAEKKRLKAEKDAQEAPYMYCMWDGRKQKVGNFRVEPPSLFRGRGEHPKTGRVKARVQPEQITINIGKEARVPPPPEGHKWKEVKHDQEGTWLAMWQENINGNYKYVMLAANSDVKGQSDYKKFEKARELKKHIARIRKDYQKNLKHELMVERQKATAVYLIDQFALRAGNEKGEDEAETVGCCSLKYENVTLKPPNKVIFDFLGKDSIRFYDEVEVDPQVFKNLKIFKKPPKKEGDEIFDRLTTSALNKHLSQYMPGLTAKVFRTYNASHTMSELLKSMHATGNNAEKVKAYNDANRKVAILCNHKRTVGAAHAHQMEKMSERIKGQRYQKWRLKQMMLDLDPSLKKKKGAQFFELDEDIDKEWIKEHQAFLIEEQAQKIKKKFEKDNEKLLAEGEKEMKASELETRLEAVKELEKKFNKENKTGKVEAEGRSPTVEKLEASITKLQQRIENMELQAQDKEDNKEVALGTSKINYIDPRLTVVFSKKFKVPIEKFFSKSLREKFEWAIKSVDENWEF
Protocol: Two liters of YG medium (0.5% yeast extract and 2% glucose) were inoculated with approximately 5×10^8 conidia/ml. After 16 hours of growth at 37° C., the mycelia were collected, washed with Buffer I (50 mM Tris-HCl, pH 7.7, 1 mM EDTA, 1 mM EGTA, 10% glycerol, 1 mM phenylmethylsulfonyl fluoride and 1 mM 2-mercaptoethanol), and quickly chilled in liquid nitrogen. The frozen mycelia (approximately 20 grams) were ground to powder and resuspended in 300 ml of Buffer I. The lysate was centrifuged at 10K rpm in a Sorval HB3 Rotor for 15 minutes to remove cell debris. The supernatant was made 6% in polyethylene glycol (v/v) and 1M NaCl. After one hour on ice with gentle stirring, the solution was centrifuged at 14K rpm in a Sorvall Rotor for 30 minutes to remove nucleic acids.
Subsequent steps in purification were the same as described previously for purification of recombinant human DNA topoisomerase I (B. Gatto et al., Cancer Res., 56, 2795 (1996)). Briefly, the supernatant was chromatographed directly onto a hydroxyapatite Bio-gel HTP (BioRad Laboratories, Richmond, Calif.) column. Fractions containing relaxation activity were pooled, diluted and then loaded onto a BioRex70 column (BioRad Laboratories, Richmond, Calif.). The column was developed with a linear gradient from 0.2 to 1M KCl. The peak fractions were pooled and dialyzed overnight at 4° C. against 30 mM potassium phosphate, 50% glycerol (v/v), 0.5 mM EDTA, and 1 mM DTT. Recombinant human topoisomerase I was purified from Escherichia coli BL21 (DE3) harboring PET1B as described previously (Gatto et al., Cancer Res., 56, 2795 (1996)).
DNA topoisomerase I cleavage assays were performed as described by Y.-H. Hsiang et al., J. Biol. Chem., 260, 14873 (1985). YEpG DNA was linearized with BamHI and then 3 '-end-labeled with Klenow polymerase and α[-^32 P]dCTP. Following phenol extraction and ethanol precipitation, the labeled DNA was resuspended in 10 mM Tris, pH 8.0, and 1 mM EDTA. The DNA cleavage assay was done in a reaction mixture (20 μl) containing 40 mM Tris-HCl, pH 7.8, 100 mM KCl, 10 mM MgCl2, 0.5 mM dithiothreitol, 0.5 mM EDTA, 30 μg/ml bovine serum albumin, 20 ng of labeled YEpG DNA, and […] of Aspergillus or human topoisomerase I diluted to various extents. Following incubation at 23° C. for 15 minutes, the reactions were terminated by the addition of SDS (final concentration 1%) and proteinase K (final concentration 200 μg/ml). Proteinase K treatment continued at 37° C. for another 1 hour. The terminated reactions were either alkali-denatured and then loaded (alkaline loading) or loaded directedly in neutral loading buffer (neutral loading) onto a 1% agarose gel in neutral TPE electrophoresis solution. Gel drying and autoradiography were performed as described by Hsiang et al., cited above.

SMILES: COc1ccc(-c2nc3ccc([N+](=O)[O-])cc3[nH]2)cc1 [QS/II/9]
- inhibition (poisoning) of mammalian DNA topoisomerase I, previous studies [1]: inhibitors (poisons)
- cytotoxicity to yeast cells expressing functional yeast topoisomerase I [2]: not cytotoxic
- cytotoxicity to yeast cells expressing human topoisomerase I [3]: highly cytotoxic
- cytotoxicity to yeast cells expressing nonfunctional yeast topoisomerase I [4]: not cytotoxic
- inhibition (poisoning) of Aspergillus topoisomerase I, in words [5]: None of the mono-benzimidazoles, including QS/II/50, QS/II/51, QS/II/59A, an QS/II/9, exhibited any inhibitory effect
